Legend:
Assay type in all cases: cell-based, human
Hpac-spheres = assay: Inhibition of sphere formation by stem cell signaling inhibitors; conditions: inhibitor added into sphere culture medium, observed after 7 days
Method: (§1) For sphere formation, pancreatic cancer cell lines were plated 1000 cell/mL in serum-free DMEM/F12 supplemented with EGF (10 ng/mL, R&D Systems Inc., Minneapolis, Minn.), bFGF ([…], R&D Systems Inc.), 1 ITS (insulin transferring selenium, Gibco) and 0.5% FBS on Corning Costar ultra-low attached 6-well culture dishes (Corning Inc., Corning, N.Y., US), and cultured for 7-10 days. The adherent cells cultured with the same media by attaching on culture plates (Nalgene Nunc Int., Rochester, N.Y.) were used as a control group.
Well-known stem cell signaling inhibitors DAPT (Calbiochem, San Diego, Calif., USA), Cyclopamine-KAAD (Calbiochem, San Diego, Calif., USA), LiCl (Sigma-Aldrich, Inc., St. Louis, Mo.), ATRA (Sigma-Aldrich, Inc., St. Louis, Mo.), OV (Sigma-Aldrich, Inc., St. Louis, Mo.) were added added into sphere culture medium, and cultured. After 7 days, sphere formation was observed.

Hpac cell line [1] = assay: Sphere culture of GLRX3 knock-down cell line; conditions: sphere-cultured for 7 days, vs control cell line
Method: as §1
(§2) For clonogenic assay, 0.6% agar in cell media was boiled, hardened on 24-well plate (lower layer media). The cells at density of 1000 cell/well and 0.3% agar-cell media (upper layer media) were mixed, and hardened on lower layer media. Once 0.3% upper layer media was hardened, 500 μL/well of media was added on the upper layer media. Adding the media every third day, the cells were cultured for 3-4 weeks. Afterward, the media on agar was removed, stained with crystal violet to count the number of colony.

GLRX3 = GLRX3 mRNA and protein expression in GLRX3 knock-down cell line (PCR and western blot); conditions: Hpac cell line transfected with shRNA, puromycin-selected clones, vs control shRNA
Method: (§3) Selection marker was puromycin ([…]).

Hpac cell line [2] = assay: Wound-healing assay of GLRX3 knock-down cell line; conditions: GLRX3 k/d cell line compared to the control
Method: as §3

Hpac cell line [3] = assay: Doubling time assay (cell proliferation) of GLRX3 knock-down cell line; conditions: GLRX3 k/d cell line compared to the control, counted for 5 days
Method: as §3

Hpac cell line [4] = assay: Clonogenic assay of GLRX3 knock-down cell line; conditions: soft agar, 3-4 weeks, vs control cell line
Method: as §2

CFAPC-1 cells = assay: Fluorescence-Activated Cell Sorting of CD24/CD44/ESA after GLRX3 siRNA transfection; conditions: 72 hours after transfection; decreased from 70.4% (control)
Method: To inhibit GLRX3, siRNA (invitrogen Stealth™ siRNA duplex oligoribonucleotides) to GLRX3 was used. Sense siRNA sequence was UGAGGGAGUUCUUUAGCUAACUCUG, and antisense siRNA sequence was CAGAGUUAGCUAAAGAACUCCCUCA. Med GC (invitrogen) was used as negative control siRNA. CFAPC-1 cells were transfected with GLRX3 or negative control siRNA using RNAiMAX (invtirogen, Carlsbad, Calif., US), and incubated for 72 hours. The cells were treated with accutase (Sigma-Aldrich, St. Louis, Mo.) to prepare suspensions with the same number of single cells. Afterward, the cells were stained with PE-CD24 (BD Biosciences PharMingen, San Diego, Calif.), APC-CD44 (BD Biosciences PharMingen, San Diego, Calif.) and FITC-ESA (BD Biosciences PharMingen, San Diego, Calif.). Fluorescence-Activated Cell Sorting was carried out using BD LSR II (BD Biosciences, Franklin Lakes, N.J.) and analyzed by BD FACSDiva software.

CC1=C(/C=C/C(C)=C/C=C/C(C)=C/C(=O)O)C(C)(C)CCC1 [ATRA]
ability to form sphere in Hpac-spheres (Hpac-spheres): completely inhibited or reduced

C[C@H](NC(=O)Cc1cc(F)cc(F)c1)C(=O)N[C@H](C(=O)OC(C)(C)C)c1ccccc1 [DAPT]
ability to form sphere in Hpac-spheres (Hpac-spheres): completely inhibited or reduced

CC1=C2C[C@H]3[C@@H](CC=C4CC(=O)CC[C@@]43C)[C@@H]2CC[C@]12O[C@@H]1C[C@H](C)CN(CCNC(=O)CCCCCNC(=O)CCc3ccccc3)[C@H]1[C@H]2C [KAAD, Cyclopamine-KAAD]
ability to form sphere in Hpac-spheres (Hpac-spheres): completely inhibited or reduced

[Cl-].[Li+] [LiCl]
ability to form sphere in Hpac-spheres (Hpac-spheres): completely inhibited or reduced

[Na+].[Na+].[Na+].[O]=[V]([O-])([O-])[O-] [OV]
ability to form sphere in Hpac-spheres (Hpac-spheres): completely inhibited or reduced

shRNA to GLRX3: shRNA plasmid to GLRX3, sequence GTGGAAATTCTTCACAAACAT (SEQ ID NO:4), used to establish the GLRX3 knock-down Hpac line (guide GTGGAAATTCTTCACAAACAT; listed as Homo sapiens)
ability to form spheres (Hpac cell line [1]): not formed | Expressions of mRNA and protein of GLRX3 (GLRX3): significantly reduced | cell migration activity (Hpac cell line [2]): decreased | cell proliferation rate (Hpac cell line [3]): decreased | colonies formed (viability and proliferation) (Hpac cell line [4]): fewer colonies

siRNA to GLRX3: Stealth siRNA duplex to GLRX3; sense UGAGGGAGUUCUUUAGCUAACUCUG (SEQ ID NOs:2 and 3) (chain 1 UGAGGGAGUUCUUUAGCUAACUCUG; chain 2 CAGAGUUAGCUAAAGAACUCCCUCA; listed as RNA, chemistry not given here; listed as Homo sapiens)
fraction of CD24+/CD44+/ESA+ (CFAPC-1 cells): 29.3%

Source: patent US9164105B2, “Pancreatic cancer biomarker using the characteristics of pancreatic cancer stem cells, and use thereof” (INDUSTRY-ACADEMIC COOPERATION FOUNDATION, YONSEI UNIVERSITY, priority 2012, dated 2015)
